{
  "source": "paper PMC13047053",
  "about": "“Crystal structure of human INPP5K with an allosteric inhibitor reveals the structural basis for species specific potency” (Scientific Reports, 2026)",
  "assay_in_all_cases": "Inorganic phosphate detection assay for phosphatase inhibition",
  "type_in_all_cases": "biochemical",
  "key": {"[1]": {"target": "T1, human INPP5K (Homo sapiens, UniProt Q9BT40)", "T1 construct": "full-length human INPP5K (amino acids 1–448, UniProt ID: Q9BT40); FLAG (N); made in house; host or cells: Expi293 cells (pcDNA3.4, transient)", "T1 sequence (Q9BT40 1-448)": "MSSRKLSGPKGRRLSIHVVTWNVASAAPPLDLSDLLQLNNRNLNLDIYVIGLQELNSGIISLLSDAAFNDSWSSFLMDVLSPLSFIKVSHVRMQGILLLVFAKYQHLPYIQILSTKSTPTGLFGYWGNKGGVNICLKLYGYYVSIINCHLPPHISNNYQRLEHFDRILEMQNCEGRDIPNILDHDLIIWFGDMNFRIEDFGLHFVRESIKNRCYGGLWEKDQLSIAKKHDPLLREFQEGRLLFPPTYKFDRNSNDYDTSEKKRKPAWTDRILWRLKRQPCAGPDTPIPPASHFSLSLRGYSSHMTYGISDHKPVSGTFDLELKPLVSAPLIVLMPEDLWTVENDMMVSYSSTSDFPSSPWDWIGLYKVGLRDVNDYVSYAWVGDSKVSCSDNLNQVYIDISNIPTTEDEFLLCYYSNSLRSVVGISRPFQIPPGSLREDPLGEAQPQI", "description": "(§1) The protein purification is described in detail elsewhere. Briefly, full-length human INPP5K (amino acids 1–448, UniProt ID: Q9BT40), rat INPP5K (aa 1–446, UniProt ID: Q9R0B6), mouse INPP5K (aa 1–468, UniProt ID: Q8C5L6), hamster INPP5K (aa 1–453, UniProt ID: G3HTF6), guinea pig INPP5K (aa 1–473, UniProt ID: H0V8T7) containing an N-terminal FLAG-tag, full-length human SHIP2 (aa 1–1 258) containing a C-terminal FLAG-tag, and full-length human PIPP (amino acids 1–1 006) containing an N-terminal His8-tag were all cloned into the pcDNA3.4 expression vector and transiently expressed in Expi293 cells (Thermo Fisher Scientific). The PH domain of human TAPP1 (amino acids 180–404) containing an N-terminal GST-tag was expressed in a pGEX6P1 expression vector (GE Healthcare) in E. coli strain BL21 ((Merck KGaA, Darmstadt, Germany)), following IPTG induction at 37 °C for 5 h. All the FLAG-tagged INPP5Ks and hSHIP2 were purified using affinity columns containing DDDDK-tagged protein purification gel (MBL, Medical & Biological Laboratories Co., Ltd., Tokyo, Japan), followed by size-exclusion chromatography with Superdex 200 columns (GE Healthcare). His8-tagged hPIPP was purified using Ni–NTA Superflow (Qiagen) and Superdex 200 columns. The GST-tagged hTAPP1 domain was purified using a Glutathione Sepharose 4B (GE Healthcare) and Superdex 200 columns. The purity of the protein obtained was evaluated using SDS-PAGE.\n(§2) The release of inorganic phosphate was measured using a PiPer Phosphate Assay Kit (Thermo Fisher Scientific), according to the manufacturer’s instructions, but with some modifications. Enzyme reactions were performed in a final volume of 10 µL per well in a 384-well nonbinding black plates (Greiner Bio-One International, GmbH, Kremsmünster, Austria). The reaction mixtures containing 20 µM diC8-PI(3,4,5)P₃ and each enzyme (human INPP5K, mouse INPP5K, rat INPP5K, hamster INPP5K, guinea pig INPP5K, human SHIP2, or human PIPP) in reaction buffer (50 mM Tris–HCl pH 7.0, 150 mM NaCl, 7.5 mM MgCl₂, 0.03% Igepal CA-630, 0.03% gelatin), with or without various concentrations of inhibitor, were incubated for 20 min at room temperature. The reactions were then stopped and detection reactions were initiated by adding 5 µL of detection mix 1 (60 mM EDTA, 12 U/mL maltose phosphorylase, and 0.6 mM maltose in 100 mM Tris–HCl pH 8.0). After incubation for 60 min at room temperature, 5 µL of detection mix 2 (8 U/mL glucose oxidase, 0.8 U/mL HRP, and 100 µM Amplex Red in 100 mM Tris–HCl pH 8.0) was added, and the mixture was incubated for a further 30 min at room temperature in the dark. The fluorescence generated was measured using an Envision plate reader at 531/590 nm (excitation/emission), and the percentage inhibition was calculated as described above."}, "[2]": {"target": "T2, hamster INPP5K (Cricetulus griseus, UniProt G3HTF6)", "T2 construct": "hamster INPP5K (aa 1–453, UniProt ID: G3HTF6); FLAG (N); made in house; host or cells: Expi293 cells (pcDNA3.4, transient)", "T2 sequence (G3HTF6 1-451)": "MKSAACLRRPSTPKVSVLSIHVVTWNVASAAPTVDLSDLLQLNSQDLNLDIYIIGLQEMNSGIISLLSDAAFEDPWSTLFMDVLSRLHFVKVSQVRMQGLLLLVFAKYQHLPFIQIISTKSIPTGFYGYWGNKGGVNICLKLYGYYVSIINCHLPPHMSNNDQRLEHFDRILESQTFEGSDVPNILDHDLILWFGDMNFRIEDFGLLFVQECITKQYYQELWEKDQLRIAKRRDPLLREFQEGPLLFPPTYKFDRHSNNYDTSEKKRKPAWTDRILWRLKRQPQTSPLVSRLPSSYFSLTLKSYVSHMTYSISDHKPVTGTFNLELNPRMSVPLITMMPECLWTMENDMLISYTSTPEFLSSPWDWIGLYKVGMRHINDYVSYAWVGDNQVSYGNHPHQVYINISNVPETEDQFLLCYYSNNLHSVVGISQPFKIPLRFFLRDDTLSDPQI", "conditions": "20 µM diC8-PI(3,4,5)P3, 20 min", "description": "as §1, §2"}, "[3]": {"target": "guinea pig INPP5K (Cavia porcellus, UniProt H0V8T7)", "sequence (H0V8T7 entry or part of it)": "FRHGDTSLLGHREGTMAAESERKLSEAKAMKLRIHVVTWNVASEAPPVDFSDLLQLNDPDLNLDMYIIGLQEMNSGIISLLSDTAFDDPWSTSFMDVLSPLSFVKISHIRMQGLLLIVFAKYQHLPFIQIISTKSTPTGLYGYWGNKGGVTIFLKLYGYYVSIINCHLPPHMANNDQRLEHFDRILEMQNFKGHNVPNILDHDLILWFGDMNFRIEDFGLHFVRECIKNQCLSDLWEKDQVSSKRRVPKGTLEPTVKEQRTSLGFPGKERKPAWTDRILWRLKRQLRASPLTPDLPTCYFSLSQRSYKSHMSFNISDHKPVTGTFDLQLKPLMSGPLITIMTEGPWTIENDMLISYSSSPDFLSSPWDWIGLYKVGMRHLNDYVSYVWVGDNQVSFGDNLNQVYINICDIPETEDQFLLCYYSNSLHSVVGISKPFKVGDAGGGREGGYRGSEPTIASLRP", "conditions": "20 µM diC8-PI(3,4,5)P3, 20 min", "description": "as §1, §2"}},
  "note": "“Also recorded” adds a separate entry of the source.",
  "data": [
    {"smiles": "CC(C)c1sc(NC(=O)c2ccccc2)c(C(=O)O)c1-c1ccccc1", "note": "[CPD-1]", "values": [
      {"measurement": "IC50", "setting": "[1]; inorganic phosphate detection assay, 20 µM diC8-PI(3,4,5)P3, 20 min", "value": 2.9, "unit": "µM"},
      {"measurement": "mode of inhibition of human INPP5K", "setting": "[1]; result in words", "value": "noncompetitive inhibition; also recorded: noncompetitive inhibitor"},
      {"measurement": "IC50", "setting": "[2]", "value": 8.2, "unit": "µM"},
      {"measurement": "IC50", "setting": "[3]", "value": 59, "unit": "µM"}
    ]}
  ]
}
